# Test results taken from patent US20050233985A1, “Rsk inhibitors and therapeutic uses thereof” (priority 2003, published 2005).
# “Also recorded” adds a separate entry of the source. Read-outs that look alike come from different tables or passages of the source.
# Key:
# [1] = system: Ha-ras-transformed NIH/3T3 cells; assay: Proliferation of transformed cells (CellTiter-Glo); assay type: cell-based
# Description: (§1) Cells were treated with vehicle, 50 μM SL0101, or 50 μM PD 98059 (PD 98059 is a MEK-specific inhibitor). Proliferation was measured using Promega CellTiter-Glo™ Luminescent cell viability assay.
# (§2) Cell Culture. For proliferation studies cells were seeded at 2500 to 5000 cells per well in 96 well tissue culture plates in the appropriate medium as described by American Type Culture Collection. After 24 hr, the medium was replaced with medium containing compound or vehicle as indicated. Cell viability was measured at indicated time points using CellTiter-Glo™ assay reagent (Promega) according to manufacturer's protocol. For in vivo inhibition studies, cells were seeded at 2.5×10^5 cells/well in 12 well cell culture clusters. After 24 hr, the cells were serum starved for 24 hr then incubated with compound or vehicle for 3 hr prior to a 30 min PDB stimulation. Cells were lysed as previously described (J. Biol. Chem. 273, 13317-13323 (1998)). The lysates were normalized for total protein, electrophoresed and immunoblotted. For cell imaging, Ha-Ras-transformed NIH/3T3 cells were seeded on LABTEK II chamber slides (Nalge) at a density of 1×10^4 cells/well. After 24 hr, fresh medium was added the indicated compounds or vehicle. Images were taken 48 hr after treatment at a magnification of 20×.
# [2] = system: MCF-7 cells; assay type: cell-based
# Description: (§3) Cell viability was measured at indicated time points. Proliferation assays were conducted using CellTiter-Glo Luminescent Cell Viability Assay (Promega), performed 44 hrs after treatment for FIGS. 8A &B and at indicated points for FIG. 8C. The data are expressed relative to time 0.
# as §2
# [3] = system: MCF-10A cells; assay: Proliferation of MCF-10A cells (CellTiter-Glo); assay type: cell-based
# Description: as §3, §2
# [4] = system: MAPK, MEK, Raf and PKC; assay: Upstream MAPK pathway kinases in PDB-stimulated cells (Rsk mobility shift, anti-active MAPK); assay type: cell-based, human
# Description: Specific inhibition of Rsk in situ was determined by incubation of MCF-7 cells in the presence or absence of increasing concentrations of extract fraction enriched in SL0101 prior to stimulation of the MAPK pathway with phorbol dibutyrate (PDB). […] Thus, SL0101 is a Rsk-specific inhibitor in situ as well as in vitro and can be used as an investigative tool for defining the function of Rsk in situ.
# (§4) Cells were treated with 500 nM PDB for 30 min prior to lysis. Protein concentration of lysates was measured and lysates were electrophoresed, transferred and immunoblotted.
# as §2
# [5] = target: T1, Rsk2 (Homo sapiens, UniProt P51812, Y707A); assay: Rsk kinase ELISA with immobilized substrate and phosphospecific antibodies; assay type: biochemical
# T1 construct: His; made in house; host or cells: Sf9 (baculovirus, Bac-to-Bac)
# [6] = target: T2, Rsk3 (Homo sapiens, UniProt Q15349); assay: Kinase assay of immunoprecipitated HA-tagged Rsk3; assay type: biochemical; conditions: 2 μM
# T2 construct: expressed in transfected cells; host or cells: BHK21, transiently transfected, EGF-stimulated; anti-HA immunoprecipitate
# Source text: (§5) To determine whether the unique adenosine-interacting loop is sufficient for SL0101-1 specificity, the isozyme specificity of SL0101-1 was examined. The primary structure of the NTKDs of the Rsk isoforms 1-3 are highly related, sharing 87% identity and each contain the unique adenosine-interacting loop. HA-tagged proteins were immunoprecipitated from the lysates of EGF-stimulated BHK21 cells transiently transfected with the indicated HA-tagged constructs (Rsk1, Rsk2 and Rsk3). Assays were performed as described immediately above.
# (§6) Kinase Assays. Glutathione-S-transferase (GST)-fusion protein (1 g) containing the sequence -[…] (SEQ ID NO: 3, for serine/threonine kinase assays) or -[…] (SEQ ID NO: 4, for tyrosine kinase assays) was adsorbed in the wells of LumiNunc 96-well polystyrene plates (MaxiSorp surface treatment). The wells were blocked with sterile 3% tryptone in phosphate buffered saline and stored at 4° C. for up to 6 months. Kinase (5 nM) in 70 μl of kinase buffer (5 mM -glycerophosphate pH 7.4, 25 mM HEPES pH 7.4, 1.5 mM DTT, 30 mM MgCl2, 0.15 M NaCl) was dispensed into each well. Compound at indicated concentrations or vehicle was added, and reactions were initiated by the addition of 30 μl of ATP for a final ATP concentration of 10 μM unless indicated otherwise. […] All assays measured the initial velocity of reaction. […]
# [7] = target: T3, p70 S6K (Homo sapiens, UniProt P23443); assay: p70 S6K kinase ELISA; assay type: biochemical; conditions: purified compounds
# T3 construct: purchased Upstate Biotechnology
# Description: (§7) Kinase Assays. Glutathione-S-transferase (GST)-fusion protein (1 g) containing the sequence -[…] (SEQ ID NO: 3, for serine/threonine kinase assays) or -[…] (SEQ ID NO: 4, for tyrosine kinase assays) was adsorbed in the wells of LumiNunc 96-well polystyrene plates (MaxiSorp surface treatment). The wells were blocked with sterile 3% tryptone in phosphate buffered saline and stored at 4° C. for up to 6 months. Kinase (5 nM) in 70 μl of kinase buffer (5 mM -glycerophosphate pH 7.4, 25 mM HEPES pH 7.4, 1.5 mM DTT, 30 mM MgCl2, 0.15 M NaCl) was dispensed into each well. Compound at indicated concentrations or vehicle was added, and reactions were initiated by the addition of 30 μl of ATP for a final ATP concentration of 10 μM unless indicated otherwise. Reactions were terminated after 10 to 45 min by addition of 75 μl of 500 mM EDTA, pH 7.5. All assays measured the initial velocity of reaction. After extensive washing of wells, polyclonal phosphospecific antibody developed against the phosphopeptide and HRP-conjugated anti-rabbit antibody (211-035-109, Jackson ImmunoResearch Laboratories) were used to detect serine phosphorylation of the substrate. HRP-conjugated anti-phospho-tyrosine antibody (RC20, BD Transduction Laboratories) was used for phospho-tyrosine detection. His-tagged active Rsk and FAK were expressed in Sf9 cells and purified using NiNTA resin (Qiagen). Baculovirus was prepared using the Bac-to-Bac® baculovirus expression system (Invitrogen). PKA was bacterially expressed and activated as described (Anal. Biochem. 245, 115-122 (1997)). Active Msk1 and p70 S6 kinase was purchased from Upstate Biotechnology. Immunoprecipitation and kinase assays were performed as previously described (Poteet-Smith et al., J. Biol. Chem, 274, 22135-22138 (1999) using the immobilized GST-fusion proteins and ELISAs as above.
# [8] = system: p140 phosphorylation in MCF-7 cells; assay: PDB-induced p140 phosphorylation in MCF-7 cells (immunoblot); assay type: cell-based, human; conditions: 3 hr pre-incubation, 500 nM PDB 30 min
# Description: as §4, §2
# [9] = system: parental NIH/3T3 cells; assay: Proliferation of parental cells (CellTiter-Glo); assay type: cell-based; conditions: 50 μM, compared to vehicle
# Description: as §1, §2
# [10] = target: Rsk2 (Homo sapiens, UniProt P51812); assay: Kinase assay of immunoprecipitated HA-tagged Rsk2 from EGF-stimulated BHK21 cells; assay type: biochemical; conditions: 2 μM
# [11] = target: T4, protein kinase A (PKA) (Homo sapiens, UniProt P17612); assay: PKA kinase ELISA; assay type: biochemical; conditions: purified compounds
# T4 construct: made in house; host or cells: bacteria
# Description: as §7
# [12] = target: T5, Msk1 (Homo sapiens, UniProt O75582); assay: Msk1 kinase ELISA; assay type: biochemical; conditions: purified compounds
# T5 construct: purchased Upstate Biotechnology
# Description: as §7
# [13] = target: T6, Focal Adhesion Kinase (FAK) (Homo sapiens, UniProt Q05397); assay: FAK tyrosine kinase ELISA; assay type: biochemical; conditions: purified compounds
# T6 construct: the catalytic domain of the tyrosine kinase, Focal Adhesion Kinase (FAK); His; made in house; host or cells: Sf9 (baculovirus, Bac-to-Bac)
# [14] = system: p140 phosphorylation in MCF-10A cells; assay: PDB-induced p140 phosphorylation in MCF-10A cells (immunoblot); assay type: cell-based; conditions: 3 hr pre-incubation, 500 nM PDB 30 min
# Description: as §4, §2
# [15] = system: p140 phosphorylation in LNCaP cells; assay: p140 phosphorylation in LNCaP line (anti-RPM antibody); assay type: cell-based, human; conditions: efficacy paralleled inhibition of LNCaP proliferation
# Description: The ability of SL1011-1 to inhibit the proliferation of the androgen-dependent human prostate line, LNCaP was tested. […] To investigate the Rsk signal transduction pathway in the LNCaP line, a phosphospecific antibody to a Rsk phosphorylation motif (RPM) was produced. Only a few downstream effectors of Rsk have been identified and therefore, applicants anticipated that an anti-RPM antibody would be a very effective tool for identifying novel Rsk substrates in vivo. An anti-RPM antibody has previously been reported that recognizes the Rsk substrate, p140, a protein of unknown function. […] All lysates were normalized to each other using an anti-Ran antibody. Ran is used for normalization based on the observations that it is a general housekeeping protein, the activity or expression levels of which are not known to vary in any disease state.
# [16] = target: T7, Rsk2(1-389) (Homo sapiens, UniProt P51812); assay: Kinase assay of immunoprecipitated HA-tagged Rsk2 amino-terminal kinase domain; assay type: biochemical; conditions: 2 μM
# T7 construct: a truncation mutant of Rsk2 containing only the NTKD (Rsk2(1-389)); expressed in transfected cells; host or cells: BHK21, EGF-stimulated; anti-HA immunoprecipitate
# [17] = system: LNCaP cells; assay: Proliferation of LNCaP cells (CellTiter-Glo); assay type: cell-based, human; conditions: 50 μM, 44 hrs after treatment
# Description: as §3, §2
# [18] = target: T8, Rsk1 (Homo sapiens, UniProt Q15418); assay: Kinase assay of immunoprecipitated HA-tagged Rsk1; assay type: biochemical; conditions: 2 μM
# T8 construct: expressed in transfected cells; host or cells: BHK21, transiently transfected, EGF-stimulated; anti-HA immunoprecipitate
# Source text: as §5, §6
# [19] = in vitro, increasing concentrations of compound, read-out: IC50 for Rsk catalytic activity
# T1 sequence (P51812 whole entry Y707A): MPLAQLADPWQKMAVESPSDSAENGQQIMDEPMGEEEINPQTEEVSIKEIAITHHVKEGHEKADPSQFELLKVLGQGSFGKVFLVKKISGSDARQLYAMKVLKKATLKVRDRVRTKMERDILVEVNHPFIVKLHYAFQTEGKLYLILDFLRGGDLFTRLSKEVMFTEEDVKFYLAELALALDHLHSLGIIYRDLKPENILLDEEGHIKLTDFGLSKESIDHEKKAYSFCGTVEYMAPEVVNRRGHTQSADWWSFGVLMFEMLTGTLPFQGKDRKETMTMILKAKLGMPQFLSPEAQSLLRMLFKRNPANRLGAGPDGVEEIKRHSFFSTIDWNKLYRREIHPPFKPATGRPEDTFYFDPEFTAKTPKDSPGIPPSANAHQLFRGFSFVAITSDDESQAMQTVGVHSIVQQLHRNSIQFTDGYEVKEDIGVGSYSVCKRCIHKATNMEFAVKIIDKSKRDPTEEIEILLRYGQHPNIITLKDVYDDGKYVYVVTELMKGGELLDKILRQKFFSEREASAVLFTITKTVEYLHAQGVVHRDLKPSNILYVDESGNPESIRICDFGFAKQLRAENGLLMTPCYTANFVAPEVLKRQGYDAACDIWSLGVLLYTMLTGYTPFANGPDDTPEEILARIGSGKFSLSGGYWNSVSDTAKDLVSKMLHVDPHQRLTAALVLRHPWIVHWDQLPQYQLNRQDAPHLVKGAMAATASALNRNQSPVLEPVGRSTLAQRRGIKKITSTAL
# T3 sequence (P23443 24-525): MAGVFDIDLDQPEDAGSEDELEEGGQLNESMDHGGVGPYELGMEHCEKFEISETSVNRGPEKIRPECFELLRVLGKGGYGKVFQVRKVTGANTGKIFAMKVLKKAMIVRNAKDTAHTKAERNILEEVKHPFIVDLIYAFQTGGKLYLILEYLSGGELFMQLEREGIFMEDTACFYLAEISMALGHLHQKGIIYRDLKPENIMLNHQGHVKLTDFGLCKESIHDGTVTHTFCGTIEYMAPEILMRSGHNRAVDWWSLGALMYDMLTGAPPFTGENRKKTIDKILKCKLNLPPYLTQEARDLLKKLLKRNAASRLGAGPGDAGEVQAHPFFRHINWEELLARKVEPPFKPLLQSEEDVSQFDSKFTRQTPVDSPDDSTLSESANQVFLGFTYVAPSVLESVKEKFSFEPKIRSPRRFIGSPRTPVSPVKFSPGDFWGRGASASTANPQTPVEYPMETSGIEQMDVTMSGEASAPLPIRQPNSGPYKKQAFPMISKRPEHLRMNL
# T5 sequence (O75582 whole entry, species assumed): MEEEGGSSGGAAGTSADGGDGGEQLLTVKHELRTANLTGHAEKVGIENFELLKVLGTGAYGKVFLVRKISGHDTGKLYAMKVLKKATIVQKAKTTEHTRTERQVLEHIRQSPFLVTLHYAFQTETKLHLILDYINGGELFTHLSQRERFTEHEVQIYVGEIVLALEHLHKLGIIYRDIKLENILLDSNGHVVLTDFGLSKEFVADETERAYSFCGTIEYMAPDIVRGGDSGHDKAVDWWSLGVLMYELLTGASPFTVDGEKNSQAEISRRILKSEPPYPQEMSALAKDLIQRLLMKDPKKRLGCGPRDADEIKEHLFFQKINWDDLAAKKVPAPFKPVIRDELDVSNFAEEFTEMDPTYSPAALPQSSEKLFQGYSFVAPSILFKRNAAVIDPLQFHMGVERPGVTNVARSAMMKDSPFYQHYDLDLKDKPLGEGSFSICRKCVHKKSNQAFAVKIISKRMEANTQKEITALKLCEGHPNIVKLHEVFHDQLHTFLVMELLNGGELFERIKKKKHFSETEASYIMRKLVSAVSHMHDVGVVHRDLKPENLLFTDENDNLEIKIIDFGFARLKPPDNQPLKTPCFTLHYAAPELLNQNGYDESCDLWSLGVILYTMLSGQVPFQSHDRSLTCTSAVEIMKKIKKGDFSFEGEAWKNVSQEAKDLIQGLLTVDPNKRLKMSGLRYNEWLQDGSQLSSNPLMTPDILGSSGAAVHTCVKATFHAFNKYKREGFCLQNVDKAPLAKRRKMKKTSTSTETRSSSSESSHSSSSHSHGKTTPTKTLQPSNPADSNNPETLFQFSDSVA
# T6 sequence (Q05397 422-680 limits assumed, species assumed): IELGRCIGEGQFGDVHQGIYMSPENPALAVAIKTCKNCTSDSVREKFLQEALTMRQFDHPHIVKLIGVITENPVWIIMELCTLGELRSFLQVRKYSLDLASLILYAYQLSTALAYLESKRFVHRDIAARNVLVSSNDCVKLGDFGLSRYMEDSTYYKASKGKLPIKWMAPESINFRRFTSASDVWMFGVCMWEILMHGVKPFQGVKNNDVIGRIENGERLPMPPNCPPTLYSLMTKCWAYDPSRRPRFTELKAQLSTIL
# T7 sequence (P51812 1-389): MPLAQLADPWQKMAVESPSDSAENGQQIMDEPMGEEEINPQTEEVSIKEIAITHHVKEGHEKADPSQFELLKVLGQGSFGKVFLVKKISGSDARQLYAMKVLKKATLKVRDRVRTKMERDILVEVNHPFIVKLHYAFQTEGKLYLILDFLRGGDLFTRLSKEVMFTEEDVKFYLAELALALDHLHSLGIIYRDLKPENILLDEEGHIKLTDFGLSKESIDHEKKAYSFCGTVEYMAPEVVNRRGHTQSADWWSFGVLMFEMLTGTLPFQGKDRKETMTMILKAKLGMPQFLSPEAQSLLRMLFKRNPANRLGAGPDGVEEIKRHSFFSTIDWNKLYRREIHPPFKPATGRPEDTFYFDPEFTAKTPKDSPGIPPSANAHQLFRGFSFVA
# T8 sequence (Q15418 whole entry): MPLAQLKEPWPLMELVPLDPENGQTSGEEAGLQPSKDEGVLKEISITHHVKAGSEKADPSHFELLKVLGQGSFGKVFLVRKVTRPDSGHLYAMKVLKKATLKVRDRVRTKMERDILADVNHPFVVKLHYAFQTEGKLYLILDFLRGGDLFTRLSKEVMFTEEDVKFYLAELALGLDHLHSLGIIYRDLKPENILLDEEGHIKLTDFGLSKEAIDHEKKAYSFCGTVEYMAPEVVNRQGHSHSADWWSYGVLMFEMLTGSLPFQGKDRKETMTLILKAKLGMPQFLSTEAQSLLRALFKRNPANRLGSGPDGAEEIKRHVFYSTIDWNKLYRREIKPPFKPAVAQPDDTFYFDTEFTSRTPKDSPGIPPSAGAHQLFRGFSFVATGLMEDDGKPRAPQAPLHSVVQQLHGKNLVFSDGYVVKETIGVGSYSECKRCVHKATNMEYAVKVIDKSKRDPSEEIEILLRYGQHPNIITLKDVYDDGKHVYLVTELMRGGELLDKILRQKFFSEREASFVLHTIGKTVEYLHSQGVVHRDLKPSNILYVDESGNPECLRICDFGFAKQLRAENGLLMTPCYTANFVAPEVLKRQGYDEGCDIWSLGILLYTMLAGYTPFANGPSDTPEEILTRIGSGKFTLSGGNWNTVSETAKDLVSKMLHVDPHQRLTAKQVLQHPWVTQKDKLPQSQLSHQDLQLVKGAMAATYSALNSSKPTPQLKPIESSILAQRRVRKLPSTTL
# Sequence of Rsk2 (Homo sapiens, UniProt P51812) (P51812 whole entry): as the sequence (P51812 whole entry Y707A) above, with A707Y counted along it
# T2 sequence (Q15349 whole entry): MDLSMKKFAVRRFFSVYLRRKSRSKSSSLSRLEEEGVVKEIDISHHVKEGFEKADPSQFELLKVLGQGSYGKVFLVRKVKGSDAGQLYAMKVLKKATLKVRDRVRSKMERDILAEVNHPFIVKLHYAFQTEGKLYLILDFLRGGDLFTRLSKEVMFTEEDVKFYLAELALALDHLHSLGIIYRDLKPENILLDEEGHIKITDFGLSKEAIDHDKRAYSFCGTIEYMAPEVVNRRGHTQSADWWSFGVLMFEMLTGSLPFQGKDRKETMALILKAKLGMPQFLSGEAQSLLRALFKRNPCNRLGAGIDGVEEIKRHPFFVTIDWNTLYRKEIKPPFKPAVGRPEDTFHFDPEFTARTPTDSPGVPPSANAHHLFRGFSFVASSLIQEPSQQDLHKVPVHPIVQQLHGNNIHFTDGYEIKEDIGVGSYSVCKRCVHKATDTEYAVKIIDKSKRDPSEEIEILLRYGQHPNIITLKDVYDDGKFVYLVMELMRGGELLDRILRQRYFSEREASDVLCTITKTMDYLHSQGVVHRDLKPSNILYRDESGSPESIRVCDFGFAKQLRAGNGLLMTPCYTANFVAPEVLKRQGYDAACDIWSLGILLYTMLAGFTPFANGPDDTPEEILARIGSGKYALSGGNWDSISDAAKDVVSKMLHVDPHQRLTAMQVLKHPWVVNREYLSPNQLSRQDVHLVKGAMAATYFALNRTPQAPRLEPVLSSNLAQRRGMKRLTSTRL
compound,measurement,setting,value
"COc1cccc(-c2cc(=O)c3ccccc3o2)c1N [PD 98059, reference compound]",influence on the proliferation rate,"[1]; 50 μM PD 98059, Ha-ras-transformed or parental NIH/3T3 cells",observed only when cells were incubated in the presence of low concentrations of fetal calf serum
"Cn1cc(C2=C(c3cn(CCCSC(=N)N)c4ccccc34)C(=O)NC2=O)c2ccccc21 [Ro 318220, reference compound]",proliferation of MCF-7 cells,[2]; 500 nM,attenuated proliferation
same,proliferation of MCF-10A cells,[3]; 500 nM,attenuated proliferation
"CC(=O)OC1C(C)OC(Oc2c(-c3ccc(O)cc3)oc3cc(O)cc(O)c3c2=O)C(O)C1OC(C)=O [SL0101-1, kaempferol 3-α-L-(3″,4″-diacetyl) rhamnopyranoside]",activation of MAPK (anti-active MAPK antibody),[4],does not effect
same,"inhibition of upstream kinases PKC, Raf, MEK, MAPK in cells",[4],does not inhibit
same,phosphorylation of Rsk by MAPK (reduced electrophoretic mobility),[4],does not effect
same,specificity for Rsk compared to p70 S6K and Msk1,"[5]; 5 μM inhibitor, 5 nM purified kinases, 30 mins, 10 μM ATP",specific for inhibition of Rsk activity; also recorded: specifically inhibits
same,mechanism of Rsk inhibition,[5]; with respect to ATP,competitive with respect to ATP
same,Rsk3 activity,[6],only partially inhibited
same,inhibition of p70 S6 kinase,[7],do not inhibit
same,PDB-induced p140 phosphorylation,[8]; 100 μM,abrogates
same,cell death of MCF-7 cells,[2]; 50 μM,did not cause cell death
same,MCF-7 cell viability compared to vehicle control,[2]; 50 μM in serum-free medium (serum deprivation),significantly reduced cell viability
same,proliferation of MCF-7 cells,"[2]; 50 μM, 44 hrs after treatment",inhibited proliferation; also recorded: inhibits the proliferation
same,growth of MCF-10A cells,"[3]; 50 μM, 44 hrs after treatment",no effect; also recorded: without preventing the proliferation
same,proliferation of parental NIH/3T3 cells,[9],little effect; also recorded: little influence; also recorded: not the parental cells
same,Rsk2 activity,[10],potently reduced
same,inhibition of Protein Kinase A,[11],do not inhibit
same,inhibition of MSK,[12],do not inhibit
same,inhibition of FAK,[13],do not inhibit
same,reversibility of inhibition of cell proliferation (washout),"[1]; 50 μM for 48 hr, then medium replaced, viability 48 hr later",resulted in growth of the transformed cells; also recorded: reversible
same,proliferation of Ha-ras-transformed NIH/3T3 cells,"[1]; 50 μM, 48 hour time course, 10% fetal calf serum",decreased the growth rate; also recorded: halts proliferation; also recorded: inhibits; also recorded: inhibited the proliferation
same,toxicity to intact cells,[1]; Ha-Ras transformed and parental NIH/3T3 cells,not toxic
same,morphology of transformed cells,[1]; images 48 hr after treatment,striking morphology changes
same,PDB-induced p140 phosphorylation in MCF-10A cells,[14],prevented
same,phosphorylation of p140,[15],decrease the phosphorylation
same,inhibition of isolated Rsk2 NTKD,[16],potently inhibited; also recorded: inhibits activity
same,proliferation of LNCaP cells,[17],completely inhibit
same,Rsk1 activity,[18],potently reduced
"CC(=O)OC1C(C)OC(Oc2c(-c3ccc(O)cc3)oc3cc(O)cc(O)c3c2=O)C(OC(C)=O)C1O [SL0101-2, kaempferol 3-α-L-(2″,4″-diacetyl) rhamnopyranoside]",IC50,[5]; [19],580 nM
same,inhibition of p70 S6 kinase,[7],do not inhibit
same,inhibition of Protein Kinase A,[11],do not inhibit
same,inhibition of MSK,[12],do not inhibit
same,inhibition of FAK,[13],do not inhibit
"CC(=O)OC1C(C)OC(Oc2c(-c3ccc(O)cc3)oc3cc(O)cc(O)c3c2=O)C(O)C1O [SL0101-3, kaempferol-3-α-L-(4″-acetyl) rhamnopyranoside]",IC50,[5]; [19],190 nM
same,inhibition of p70 S6 kinase,[7],do not inhibit
same,inhibition of Protein Kinase A,[11],do not inhibit
same,inhibition of MSK,[12],do not inhibit
same,inhibition of FAK,[13],do not inhibit
"N#CC(=C(/N)Sc1ccccc1N)/C(C#N)=C(\N)Sc1ccccc1N [U0126, reference compound]",PDB-induced p140 phosphorylation,[8]; 50 μM,abrogates
same,proliferation of MCF-7 cells,"[2]; 50 μM, 44 hrs after treatment",halted proliferation
same,growth of MCF-10A cells,"[3]; 50 μM, 44 hrs after treatment",halted proliferation
"O=c1c(O)c(-c2ccc(O)cc2)oc2cc(O)cc(O)c12 [kaempferol, reference compound]",IC50,"[5]; in vitro kinase assay with immobilized substrate, read-out: IC50 for Rsk",15000 nM
same,growth of MCF-7 cells,"[2]; concentration not given, same extent as MCF-10A",slows growth
same,growth of MCF-10A cells,"[3]; concentration not given, same extent as MCF-7",slows growth
